Reference: paper doi:10.1101/2025.05.12.653380v2 (biorxiv, 2026)

Target: T1, HPC (helicase-primase complex) of HHV1, UL5-UL52-UL8 (Human alphaherpesvirus 1 strain 17, UniProt P10189+P10236)
T1 sequence (P10189 1-882): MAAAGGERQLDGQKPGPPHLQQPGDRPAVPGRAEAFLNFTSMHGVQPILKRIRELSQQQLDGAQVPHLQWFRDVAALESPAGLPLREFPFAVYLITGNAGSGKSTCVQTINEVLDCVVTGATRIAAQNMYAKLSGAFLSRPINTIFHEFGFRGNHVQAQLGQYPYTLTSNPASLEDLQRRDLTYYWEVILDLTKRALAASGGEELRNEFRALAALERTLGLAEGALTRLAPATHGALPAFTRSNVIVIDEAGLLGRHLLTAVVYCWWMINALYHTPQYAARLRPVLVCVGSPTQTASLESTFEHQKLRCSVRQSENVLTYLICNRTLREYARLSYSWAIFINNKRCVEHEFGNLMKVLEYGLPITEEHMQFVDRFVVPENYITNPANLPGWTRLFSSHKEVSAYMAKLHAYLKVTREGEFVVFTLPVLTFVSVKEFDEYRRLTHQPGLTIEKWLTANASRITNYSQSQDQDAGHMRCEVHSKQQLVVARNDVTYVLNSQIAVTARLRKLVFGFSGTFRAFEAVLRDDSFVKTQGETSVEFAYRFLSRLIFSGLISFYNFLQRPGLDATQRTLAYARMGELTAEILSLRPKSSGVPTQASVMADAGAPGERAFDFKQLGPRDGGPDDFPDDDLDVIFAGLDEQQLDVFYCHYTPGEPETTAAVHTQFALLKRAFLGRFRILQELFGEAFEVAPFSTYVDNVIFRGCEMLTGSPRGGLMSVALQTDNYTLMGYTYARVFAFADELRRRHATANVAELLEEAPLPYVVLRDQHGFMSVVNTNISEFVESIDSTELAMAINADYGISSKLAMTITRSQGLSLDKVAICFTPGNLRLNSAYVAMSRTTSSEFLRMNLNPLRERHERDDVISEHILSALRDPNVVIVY
T1 sequence (P10236 1-1058): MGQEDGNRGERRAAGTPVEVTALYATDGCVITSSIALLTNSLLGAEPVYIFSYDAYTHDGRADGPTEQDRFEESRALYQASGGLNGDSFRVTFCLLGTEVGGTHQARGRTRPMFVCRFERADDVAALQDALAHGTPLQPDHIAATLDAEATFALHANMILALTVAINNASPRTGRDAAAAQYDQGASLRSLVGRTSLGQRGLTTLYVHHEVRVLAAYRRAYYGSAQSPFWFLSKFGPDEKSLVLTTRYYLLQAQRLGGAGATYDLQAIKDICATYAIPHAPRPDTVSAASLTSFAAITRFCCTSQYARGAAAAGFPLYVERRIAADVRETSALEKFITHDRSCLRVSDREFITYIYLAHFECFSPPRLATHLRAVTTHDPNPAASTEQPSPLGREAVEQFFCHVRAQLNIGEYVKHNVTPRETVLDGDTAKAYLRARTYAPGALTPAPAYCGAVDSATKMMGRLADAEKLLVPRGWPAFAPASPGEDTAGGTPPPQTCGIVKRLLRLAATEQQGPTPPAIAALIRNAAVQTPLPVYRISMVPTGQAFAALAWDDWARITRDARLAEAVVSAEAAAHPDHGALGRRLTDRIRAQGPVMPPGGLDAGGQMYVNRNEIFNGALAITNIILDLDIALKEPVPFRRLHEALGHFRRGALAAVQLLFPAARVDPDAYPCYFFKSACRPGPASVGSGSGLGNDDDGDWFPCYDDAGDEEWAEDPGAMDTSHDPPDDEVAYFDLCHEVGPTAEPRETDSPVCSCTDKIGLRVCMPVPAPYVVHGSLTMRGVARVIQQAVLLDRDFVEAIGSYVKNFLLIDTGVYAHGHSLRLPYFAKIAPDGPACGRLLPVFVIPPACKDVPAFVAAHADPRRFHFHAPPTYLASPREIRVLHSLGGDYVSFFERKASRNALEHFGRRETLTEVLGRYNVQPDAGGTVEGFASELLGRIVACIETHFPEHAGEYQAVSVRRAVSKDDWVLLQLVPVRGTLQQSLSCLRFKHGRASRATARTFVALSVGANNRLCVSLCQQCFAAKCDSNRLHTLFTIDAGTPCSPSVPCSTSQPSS
T1 sequence (P10192 1-750 partner): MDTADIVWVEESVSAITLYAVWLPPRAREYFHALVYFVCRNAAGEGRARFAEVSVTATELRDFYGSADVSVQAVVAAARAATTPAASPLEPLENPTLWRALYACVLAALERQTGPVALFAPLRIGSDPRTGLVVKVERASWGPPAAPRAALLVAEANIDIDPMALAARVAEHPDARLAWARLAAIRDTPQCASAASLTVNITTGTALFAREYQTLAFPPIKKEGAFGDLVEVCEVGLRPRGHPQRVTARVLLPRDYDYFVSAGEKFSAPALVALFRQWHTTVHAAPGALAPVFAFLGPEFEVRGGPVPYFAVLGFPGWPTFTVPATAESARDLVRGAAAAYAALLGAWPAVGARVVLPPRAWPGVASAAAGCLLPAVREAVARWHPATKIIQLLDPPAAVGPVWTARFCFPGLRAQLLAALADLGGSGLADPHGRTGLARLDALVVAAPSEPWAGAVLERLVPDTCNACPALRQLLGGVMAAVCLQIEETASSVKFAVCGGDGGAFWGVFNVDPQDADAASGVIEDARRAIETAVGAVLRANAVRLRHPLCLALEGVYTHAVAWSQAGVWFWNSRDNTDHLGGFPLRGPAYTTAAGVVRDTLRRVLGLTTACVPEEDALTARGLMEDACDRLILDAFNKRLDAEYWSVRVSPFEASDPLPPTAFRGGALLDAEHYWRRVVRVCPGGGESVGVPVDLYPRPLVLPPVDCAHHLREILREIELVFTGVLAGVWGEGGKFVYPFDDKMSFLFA
Experiment: NADH-coupled ATPase assay, Morrison fit of Kiapp, mixed inhibition model
Type: biochemical

Structure (SMILES)	Ki [nM]
Cc1cccc(C)c1N(CC(=O)Nc1ccc(-c2ncon2)cc1)C(=O)C1CCS(=O)(=O)CC1 [amenamevir]	1.84 ± 0.16
Cc1nc(N(C)C(=O)Cc2ccc(-c3ccccn3)cc2)sc1S(N)(=O)=O [pritelivir]	1.99 ± 0.18
